Measurements as given in patent US11000033B2, “Ketone or oxime compound, and herbicide” (NISSAN CHEMICAL CORPORATION, priority 2014, dated 2021).

Key:
Assay type in all cases: in vivo
[1] = test system: soybean; experiment: Test Example 5: effect on crop by foliage application, plastic box (symbol d); settings: 320 g/ha, 3 weeks after application
Summary of the method: (§1)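 A greenhouse held between 25° C. and 30° C. was used to grow plants sown spot-wise, beneath ~1.5 cm of soil, in boxes of sterilized diluvial soil.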

[2] = test system: Leptochloa chinensis; experiment: Test Example 3: herbicidal effect by foliage application, Wagner pot (symbol D); settings: application herbicide amount 320 g/ha
Summary of the method: (§2)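 Seeds sown in alluvial soil kept under 0.1–0.5 cm water, greenhouse 25–30 °C; 14 d growth. Leaves treated by small sprayer with water-diluted emulsion at a predetermined rate. Effect graded by set scale, 3 weeks.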

[3] = test system: Monochoria vaginalis; experiment: Test Example 1: herbicidal activity, application before weed generation in submerged conditions (symbol C); settings: application herbicide amount 320 g/ha
Summary of the method: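 Paddy pre-emergence test. Formulated emulsion, water-diluted to a predetermined rate, is applied to floodwater on sowing day; rice transplanted at 2.5 leaves. Effect read at 3 weeks on a 0–5 herbicidal-ratio scale.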

[4] = test system: corn; experiment: Test Example 5: effect on crop by foliage application, plastic box (symbol c); settings: 320 g/ha, 3 weeks after application
Summary of the method: as §1

[5] = test system: Lolium multiflorum Lam.; experiment: Test Example 5: herbicidal effect by foliage application, plastic box (symbol K); settings: 320 g/ha, 3 weeks after application
Summary of the method: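 Visual herbicidal score, taken three weeks post-application, of seedlings sprayed on the foliage with water-diluted emulsion at a predetermined amount; plants were 14 days old, greenhouse-raised at 25° C. to 30° C.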

[6] = test system: Abutilon theophrasti; experiment: Test Example 4: herbicidal effect by soil treatment (symbol M); settings: for M (Abutilon theophrasti) herbicidal effect grade: application herbicide amount 320 g/ha; for M: Abutilon theophrasti, herbicidal effect grade: 320 g/ha
Summary of the method: (§3)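 Seeds were sown in sterilized diluvial soil, covered with about 1.5 cm of soil, and the soil surface was sprayed with a water-diluted emulsion of the compound at a predetermined rate. Plants grew in a greenhouse at 25° C. to 30° C.; effects were scored visually 3 weeks after application.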

[7] = test system: Echinochloa crus-galli var. crus-galli; experiment: Test Example 3: herbicidal effect by foliage application, Wagner pot (symbol H); settings: application herbicide amount 320 g/ha
Summary of the method: as §2

[8] = test system: Avena fatua; experiment: Test Example 4: herbicidal effect by soil treatment (symbol I); settings: for I (Avena fatua) herbicidal effect grade: application herbicide amount 320 g/ha; for I: Avena fatua, herbicidal effect grade: 320 g/ha
Summary of the method: as §3

[9] = test system: rapeseed; experiment: Test Example 5: effect on crop by foliage application, plastic box (symbol g); settings: 320 g/ha, 3 weeks after application
Summary of the method: as §1

[10] = test system: Monochoria vaginalis; experiment: Test Example 2: herbicidal activity, application during weed generation in submerged conditions (symbol C); settings: Table 23; application herbicide amount 320 g/ha; grade 0-5 by criteria of Test Example 1
Summary of the method: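 Each pot contained alluvial soil under 4 cm of water with seeds of all three weeds sown together. Following growth at 25° C. to 30° C. to the one- to two-leaf stage, the floodwater received diluted emulsion at a predetermined amount; visual assessment followed at 3 weeks.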

[11] = test system: Chenopodium album; experiment: Test Example 4: herbicidal effect by soil treatment (symbol O); settings: for O (Chenopodium album) herbicidal effect grade: application herbicide amount 320 g/ha; for O: Chenopodium album, herbicidal effect grade: 320 g/ha
Summary of the method: as §3

| SMILES | d: soybean, effect on crop grade [1] | herbicidal effect on D (Leptochloa chinensis), grade 0-5 [2] | Herbicidal effect grade, C: Monochoria vaginalis [3] | c: corn, effect on crop grade [4] | K: Lolium multiflorum Lam., herbicidal effect grade [5] | M (Abutilon theophrasti) herbicidal effect grade [6] | herbicidal effect on H (Echinochloa crus-galli var. crus-galli), grade 0-5 [7] | I (Avena fatua) herbicidal effect grade [8] | g: rapeseed, effect on crop grade [9] | Herbicidal effect grade, C: Monochoria vaginalis [10] | O (Chenopodium album) herbicidal effect grade [11] | d: soybean, effect on crop (criteria 0-5) [1] | c: corn, effect on crop (criteria 0-5) [4] | K: Lolium multiflorum Lam., herbicidal effect (criteria 0-5) [5] | M: Abutilon theophrasti, herbicidal effect grade [6] | I: Avena fatua, herbicidal effect grade [8] | g: rapeseed, effect on crop (criteria 0-5) [9] | O: Chenopodium album, herbicidal effect grade [11] |
| --- | --- | --- | --- | --- | --- | --- | --- | --- | --- | --- | --- | --- | --- | --- | --- | --- | --- | --- |
| CON=C(C)CC1CC(OC(C)=O)=C(c2c(C)cc(C)cc2C)C1=O (centres unmarked) [1-005] | 4 (Herbicidal ratio of 70% or higher and lower than 90%) | 5 (Herbicidal ratio of 90% or more (almost completely withered)) | 5 (Herbicidal ratio of 90% or more (almost completely withered)) | 5 (Herbicidal ratio of 90% or more (almost completely withered)) | 5 (Herbicidal ratio of 90% or more (almost completely withered)) | 5 (Herbicidal ratio of 90% or more (almost completely withered)) | 5 (Herbicidal ratio of 90% or more (almost completely withered)) | 5 (Herbicidal ratio of 90% or more (almost completely withered)) | 4 (Herbicidal ratio of 70% or higher and lower than 90%) | 4 (Herbicidal ratio of 70% or higher and lower than 90%) | 0 (Herbicidal ratio of 5% or lower (almost no effect)) | – | – | – | – | – | – | – |
| CON=C(C)CC1CC(OS(C)(=O)=O)=C(c2c(C)cc(C)cc2C)C1=O (centres unmarked) [1-006] | 4 (Herbicidal ratio of 70% or higher and lower than 90%) | 5 (Herbicidal ratio of 90% or more (almost completely withered)) | 3 (Herbicidal ratio of 40% or higher and lower than 70%) | 3 (Herbicidal ratio of 40% or higher and lower than 70%) | 5 (Herbicidal ratio of 90% or more (almost completely withered)) | 4 (Herbicidal ratio of 70% or higher and lower than 90%) | 5 (Herbicidal ratio of 90% or more (almost completely withered)) | 3 (Herbicidal ratio of 40% or higher and lower than 70%) | 3 (Herbicidal ratio of 40% or higher and lower than 70%) | 3 (Herbicidal ratio of 40% or higher and lower than 70%) | 0 (Herbicidal ratio of 5% or lower (almost no effect)) | – | – | – | – | – | – | – |
| CON=C(C)CC1CC(OC(=O)c2nsc(Cl)c2Cl)=C(c2c(C)cc(C)cc2C)C1=O (centres unmarked) [1-099] | – | 5 (Herbicidal ratio of 90% or more (almost completely withered)) | 2 (Herbicidal ratio of 20% or higher and lower than 40%) | – | – | – | 5 (Herbicidal ratio of 90% or more (almost completely withered)) | – | – | 2 (Herbicidal ratio of 20% or higher and lower than 40%) | – | 4 (Herbicidal ratio of 70% or higher and lower than 90%) | 5 (Herbicidal ratio of 90% or more (almost completely withered)) | 5 (Herbicidal ratio of 90% or more (almost completely withered)) | 5 (Herbicidal ratio of 90% or more (almost completely withered)) | 2 (Herbicidal ratio of 20% or higher and lower than 40%) | 5 (Herbicidal ratio of 90% or more (almost completely withered)) | 0 (Herbicidal ratio of 5% or lower (almost no effect)) |
| CON=C(C)CC1CC(OC(=O)c2nc(C)sc2C)=C(c2c(C)cc(C)cc2C)C1=O (centres unmarked) [1-101] | – | 5 (Herbicidal ratio of 90% or more (almost completely withered)) | 2 (Herbicidal ratio of 20% or higher and lower than 40%) | – | – | – | 5 (Herbicidal ratio of 90% or more (almost completely withered)) | – | – | 2 (Herbicidal ratio of 20% or higher and lower than 40%) | – | 3 (Herbicidal ratio of 40% or higher and lower than 70%) | 5 (Herbicidal ratio of 90% or more (almost completely withered)) | 5 (Herbicidal ratio of 90% or more (almost completely withered)) | 5 (Herbicidal ratio of 90% or more (almost completely withered)) | 3 (Herbicidal ratio of 40% or higher and lower than 70%) | 5 (Herbicidal ratio of 90% or more (almost completely withered)) | 0 (Herbicidal ratio of 5% or lower (almost no effect)) |
| CON=C(C)CC1CC(OC(=O)c2cnoc2C2CC2)=C(c2c(C)cc(C)cc2C)C1=O (centres unmarked) [1-103] | – | 5 (Herbicidal ratio of 90% or more (almost completely withered)) | 1 (Herbicidal ratio of 5% or higher and lower than 20%) | – | – | – | 5 (Herbicidal ratio of 90% or more (almost completely withered)) | – | – | 0 (Herbicidal ratio of 5% or lower (almost no effect)) | – | 3 (Herbicidal ratio of 40% or higher and lower than 70%) | 5 (Herbicidal ratio of 90% or more (almost completely withered)) | 5 (Herbicidal ratio of 90% or more (almost completely withered)) | 5 (Herbicidal ratio of 90% or more (almost completely withered)) | 3 (Herbicidal ratio of 40% or higher and lower than 70%) | 4 (Herbicidal ratio of 70% or higher and lower than 90%) | 0 (Herbicidal ratio of 5% or lower (almost no effect)) |
| CON=C(C)CON=C(C)CC1CC(O)=C(c2c(C)cc(C)cc2C)C1=O (centres unmarked) [1-105] | – | 5 (Herbicidal ratio of 90% or more (almost completely withered)) | 4 (Herbicidal ratio of 70% or higher and lower than 90%) | – | – | – | 5 (Herbicidal ratio of 90% or more (almost completely withered)) | – | – | 3 (Herbicidal ratio of 40% or higher and lower than 70%) | – | 1 (Herbicidal ratio of 5% or higher and lower than 20%) | 4 (Herbicidal ratio of 70% or higher and lower than 90%) | 5 (Herbicidal ratio of 90% or more (almost completely withered)) | 1 (Herbicidal ratio of 5% or higher and lower than 20%) | 1 (Herbicidal ratio of 5% or higher and lower than 20%) | 4 (Herbicidal ratio of 70% or higher and lower than 90%) | 0 (Herbicidal ratio of 5% or lower (almost no effect)) |
| CC(CC1CC(O)=C(c2c(C)cc(C)cc2C)C1=O)=NOCC1CC1(F)F (centres unmarked) [1-109] | – | 5 (Herbicidal ratio of 90% or more (almost completely withered)) | 3 (Herbicidal ratio of 40% or higher and lower than 70%) | – | – | – | 5 (Herbicidal ratio of 90% or more (almost completely withered)) | – | – | 2 (Herbicidal ratio of 20% or higher and lower than 40%) | – | 0 (Herbicidal ratio of 5% or lower (almost no effect)) | 5 (Herbicidal ratio of 90% or more (almost completely withered)) | 5 (Herbicidal ratio of 90% or more (almost completely withered)) | 4 (Herbicidal ratio of 70% or higher and lower than 90%) | 2 (Herbicidal ratio of 20% or higher and lower than 40%) | 4 (Herbicidal ratio of 70% or higher and lower than 90%) | 0 (Herbicidal ratio of 5% or lower (almost no effect)) |
